Measurements published in article PMC12190436, “5-Ene-2-arylaminothiazol-4(5H)-ones Induce Apoptosis in Breast Cancer Cells” (Cells, 2025).
Structures can show the parent of a compound that is named as a salt.

What was measured:
MCF-7 cells = test: Annexin V-FITC/propidium iodide flow cytometry; type: cell-based, human; conditions: 24 h; for viability at 5 µM: MCF7, 5 µM
Protocol: The MCF-7 cells were seeded on 6-well plates (1 × 10^5 cells per well) and incubated for 24 h. Afterwards, the cells were washed, and tested compounds (Les-6416, Les-6418, Les-6381, Les-6423, and Les-6424) were added in a concentration of 5 µM. The reference drug doxorubicin hydrochloride was applied in a concentration of 0.5 µM. The cells were incubated with the compounds for 24 h. Afterwards, the cells were washed several times with cold PBS and the cell suspensions were prepared in the binding buffer from the kit at a concentration of 1 × 10^6 cells/mL. A total of 100 µL of suspension was collected from each sample and transferred to the tubes. After that, 5 µL of Annexin V-FITC and 5 µL of propidium iodide were added. After 15 min of incubation at room temperature in a dark environment, the content of the tubes was filled with binding buffer up to 500 µL and assessed by BD FACSCanto II flow cytometer (Becton Dickinson Biosciences, San Jose, CA, USA). A total of 1 × 10^4 events were measured for each sample. The results were investigated by applying FACSDiva software Version 6.1.3. (BD Biosciences Systems, San Jose, CA, USA).
To assess the effects of novel compounds on apoptosis, we utilized flow cytometry analysis with Annexin V-FITC and Propidium Iodide double staining. In this way, we could distinguish between different cell populations based on their state: unstained or alive cells, cells stained with propidium iodide or necrotic cells, cells only stained with FITC-labeled annexin V or early apoptotic cells, and cells stained with both annexin V and propidium iodide or late apoptotic cells.

MCF-10A = test: MTT cell viability assay; type: cell-based; conditions: Homo sapiens, normal cells
Description: (§1) All of the tested cell lines were acquired from the American Type Culture Collection (ATCC, Manassas, VA, USA), including human breast cancer cell lines (MCF-7, MDA-MB-231), human gastric cancer cell line (AGS), human colorectal cancer cell lines (HT-29, DLD-1), human glioblastoma cancer cell lines (T98G, A172), mouse astrocyte type I clone (C8-D1A), human normal epithelial breast cells (MCF-10A) and primary dermal fibroblast (HDFa). Such cell lines as AGS, MCF-7, MDA-MB-231, A172, T98G, C8-D1A, and primary dermal fibroblast (HDFa) were cultured in complete medium–DMEM (Corning, Kennebunk, ME, USA). RPMI-1640 (ATCC, Manassas, VA, USA) was used for the DLD-1 cell line, and McCoy’s 5A (PAN-Biotech, Aidenbach, Germany) for the HT-29 cell line. To all utilized media additionally was added 10% fetal bovine serum (FBS) (Eurx, Gdansk, Poland) and 1% penicillin and streptomycin solution (Corning, Kennebunk, ME, USA). MCF-10A cells were incubated in MEGM (Mammary Epithelial Cell Growth Medium) BulletKit supplemented with penicillin/streptomycin cocktail and 5% horse serum. All cells were cultured at 37 °C in an atmosphere with 5% CO₂ in tissue culture dishes (Sarstedt, Numbrecht, Germany). For experiments, cells were washed with phosphate-buffered saline (PBS) (Corning, Kennebunk, ME, USA) followed by the addition of 0.05% trypsin with 0.02% EDTA (Corning, Kennebunk, ME, USA). Scepter 3.0 cell counter (Merck Millipore, Burlington, MA, USA) was applied before each seeding to calculate the number of cells. For the next analyses, cells were reseeded in 6-well plates, 24-well plates, and 96-well plates.
(§2) MTT (3-(4,5-dimethylthiazol-2-yl)-2,5-diphenyltetrazolium bromide) assay method was utilized to analyze compound effects on cell viability. All cell lines were seeded in 96-well plates with 1 × 10^4 cells per well. After 24 h, cells were treated with the tested compounds and reference drug at concentrations of 0.1, 1, 2.5, 5, 10, and 20 µM for 24, 48, or 72 h. Next, a solution of 3-(4,5-dimethyl-2-thiazolyl)-2,5-diphenyl-2H-tetrazolium bromide (Sigma-Aldrich, St. Louis, MO, USA) in PBS with a concentration of 5 mg/mL was prepared. After the incubation with tested compounds, 10 µL of the prepared MTT solution was applied to each well, followed by 2 h of incubation at 37 °C. Next, cells underwent lysis by adding 100 µL of pre-prepared lysing buffer (containing 25 mM HCl, 2% acetic acid, 3% DMF, and 5% SDS, with a pH of 4.7). The absorbance was measured using a UV-VIS Helios Gamma (Unicam/ThermoFisher Scientific Inc., Cleveland, OH, USA) at 570 nm wavelength. The cells incubated with vehicle substance (0.1% DMSO) were taken as controls.
(§3) To investigate the cytotoxic potential of the newly synthesized compounds, a comprehensive assessment was conducted utilizing the MTT assay. This assay was applied on a diverse panel of cell lines, such as human breast cancer cell lines (MCF-7 and MDA-MB-231), human gastric cancer cell line (AGS), human colorectal cancer cell lines (HT-29 and DLD-1), human glioblastoma cancer cell lines (T98G and A172), mouse astrocyte type I clone cells (C8-D1A), primary dermal fibroblast (HDFa), and human normal breast cells (MCF-10A) for 24, 48, and/or 72 h.

DLD-1 = test: MTT cell viability assay; type: cell-based; conditions: Homo sapiens
Description: as §1, §2, §3

A172 = test: MTT cell viability assay; type: cell-based; conditions: Homo sapiens
Description: as §1, §2, §3

[1] = tested on: Primary Dermal Fibroblast (HDFa); test: MTT cell viability assay; type: cell-based; conditions: Homo sapiens, normal cells
Description: as §1, §2, §3

T98G = test: MTT cell viability assay; type: cell-based; conditions: Homo sapiens
Description: as §1, §2, §3

MDA-MB-231 = test: MTT cell viability assay; type: cell-based; conditions: Homo sapiens
Description: as §1, §2, §3

HT-29 = test: MTT cell viability assay; type: cell-based; conditions: Homo sapiens
Description: as §1, §2, §3

MCF-7 = test: MTT cell viability assay; type: cell-based; conditions: Homo sapiens
Description: as §1, §2, §3

C8-D1A = test: MTT cell viability assay; type: cell-based; conditions: Mus musculus, normal cells
Description: as §1, §2, §3

AGS = test: MTT cell viability assay; type: cell-based; conditions: Homo sapiens
Description: as §1, §2, §3

[2] = Homo sapiens, read-out: Viable cells, cell population

| Compound | IC50 (MCF-10A; MCF-10A 24 h) [µM] | IC50 (DLD-1; DLD-1 24 h) [µM] | IC50 (DLD-1; DLD-1 48 h) [µM] | IC50 (A172; A 172, A172 24 h) [µM] | IC50 (A172; A 172, A172 48 h) [µM] | IC50 ([1]; HDFa 24 h) [µM] | IC50 ([1]; HDFa 48 h) [µM] | IC50 ([1]; HDFa 72 h) [µM] | IC50 (T98G; T98G 24 h) [µM] | IC50 (T98G; T98G 48 h) [µM] | IC50 (MDA-MB-231; MDA-MB-231 24 h) [µM] | IC50 (MDA-MB-231; MDA-MB-231 48 h) [µM] | IC50 (MDA-MB-231; MDA-MB-231 72 h) [µM] | IC50 (HT-29; HT-29 24 h) [µM] | IC50 (HT-29; HT-29 48 h) [µM] | IC50 (MCF-7; MCF7, MCF-7 24 h) [µM] | IC50 (MCF-7; MCF7, MCF-7 48 h) [µM] | IC50 (MCF-7; MCF7, MCF-7 72 h) [µM] | IC50 (AGS; AGS 24 h) [µM] | IC50 (AGS; AGS 48 h) [µM] | other results |
| --- | --- | --- | --- | --- | --- | --- | --- | --- | --- | --- | --- | --- | --- | --- | --- | --- | --- | --- | --- | --- | --- |
| COc1cccc2c1C(=O)c1c(O)c3c(c(O)c1C2=O)C[C@@](O)(C(=O)CO)C[C@@H]3O[C@H]1C[C@H](N)[C@H](O)[C@H](C)O1 [DOX, Doxorubicin hydrochloride, reference compound] | > 20 | 4.69 ± 0.48 | 0.6 ± 0.08 | > 20 | 12.9 ± 0.89 | > 20 | > 20 | 0.99 ± 0.03 | > 20 | > 20 | > 20 | 3.91 ± 0.22 | 2.37 ± 0.15 | > 20 | 0.3 ± 0.04 | 2.46 ± 0.54 | 0.81 ± 0.01 | 0.26 ± 0.03 | > 20 | 0.39 ± 0.01 | Necrotic cells, cell population (MCF-7 cells; 0.5 µM): 27.23 ± 3.76%; viability at 0.5 µM (MCF-7 cells; Homo sapiens, MCF7, 0.5 µM, read-out: Viable cells, cell population): 59.6%; IC50 (MCF-10A; MCF-10A 48 h): 0.16 ± 0.01 µM; IC50 (MCF-10A; MCF-10A 72 h): 0.11 ± 0.01 µM; IC50 (C8-D1A; C8-D1A 24 h): > 20 µM; IC50 (C8-D1A; C8-D1A 48 h): 0.25 ± 0.01 µM |
| COc1ccc(C=C2SC(Nc3cc(OC)c(OC)c(OC)c3)=NC2=O)cc1 [Les-6381, 5-(4-Methoxybenzylidene)-2-((3,4,5-trimethoxyphenyl)amino)thiazol-4(5H)-one] | 8.37 ± 0.11 | 18.2 ± 1.24 | 3.86 ± 0.11 | > 20 | 8.65 ± 0.52 | > 20 | > 20 | > 20 | 13.1 ± 0.24 | 4.09 ± 0.1 | > 20 | > 20 | > 20 | > 20 | 4.58 ± 0.46 | 6.93 ± 0.13 | 7.93 ± 0.1 | 2.43 ± 0.12 | > 20 | 2.24 ± 0.31 | viability at 5 µM (MCF-7 cells; [2]): 49.6%; IC50 (MCF-10A; MCF-10A 48 h): 0.97 ± 0.04 µM; IC50 (MCF-10A; MCF-10A 72 h): 2.03 ± 0.1 µM |
| COc1cc(NC2=NC(=O)C(=Cc3ccc4cc[nH]c4c3)S2)cc(OC)c1OC [Les-6416, 5-((1H-Indol-6-yl)methylene)-2-((3,4,5-trimethoxyphenyl)amino)thiazol-4(5H)-one] | > 20 | > 20 | > 20 | > 20 | > 20 | > 20 | > 20 | > 20 | > 20 | > 20 | > 20 | > 20 | > 20 | > 20 | 6.58 ± 0.37 | 4.7 ± 0.06 | 2.09 ± 0.05 | 1.29 ± 0.01 | > 20 | 3.45 ± 0.2 | Early apoptotic cells, cell population (MCF-7 cells; 5 µM): 8.23 ± 2.56%; Late apoptotic cells, cell population (MCF-7 cells; 5 µM): 45.63 ± 10.29%; Necrotic cells, cell population (MCF-7 cells; 5 µM): 0.07 ± 0.06%; viability at 5 µM (MCF-7 cells; [2]): 39.8%; IC50 (MCF-10A; MCF-10A 48 h): 7.99 ± 0.48 µM; IC50 (MCF-10A; MCF-10A 72 h): 7.25 ± 0.3 µM; IC50 (C8-D1A; C8-D1A 24 h): 14.3 ± 1.52 µM; IC50 (C8-D1A; C8-D1A 48 h): 7.1 ± 0.73 µM |
| COc1cc(NC2=NC(=O)C(=Cc3c[nH]c4ccccc34)S2)cc(OC)c1OC [Les-6418, 5-((1H-Indol-3-yl)methylene)-2-((3,4,5-trimethoxyphenyl)amino)thiazol-4(5H)-one] | > 20 | > 20 | > 20 | > 20 | > 20 | > 20 | > 20 | > 20 | 16.9 ± 1.58 | > 20 | > 20 | > 20 | > 20 | > 20 | 7.77 ± 0.91 | > 20 | 4.51 ± 0.04 | 2.24 ± 0.07 | > 20 | 4.59 ± 0.42 | Early apoptotic cells, cell population (MCF-7 cells; 5 µM): 7.55 ± 1.17%; Late apoptotic cells, cell population (MCF-7 cells; 5 µM): 44.68 ± 8.18%; Necrotic cells, cell population (MCF-7 cells; 5 µM): 0.13 ± 0.05%; viability at 5 µM (MCF-7 cells; [2]): 47.7%; IC50 (MCF-10A; MCF-10A 48 h): 7.24 ± 0.29 µM; IC50 (MCF-10A; MCF-10A 72 h): 6.66 ± 0.67 µM; IC50 (C8-D1A; C8-D1A 24 h): 12.9 ± 0.24 µM; IC50 (C8-D1A; C8-D1A 48 h): 7.42 ± 2.33 µM |
| COc1cc(NC2=NC(=O)C(=Cc3cccs3)S2)cc(OC)c1OC [Les-6423, 5-(Thiophen-2-ylmethylene)-2-((3,4,5-trimethoxyphenyl)amino)thiazol-4(5H)-one] |  | > 20 | > 20 | > 20 | > 20 | > 20 | > 20 | > 20 | > 20 | > 20 | > 20 | > 20 | > 20 | > 20 | 4.41 ± 0.35 | > 20 | > 20 | > 20 | > 20 | 14.5 ± 0.57 | proapoptotic effect in comparison to the control (MCF-7 cells; 5 µM): did not have any statistically significant results; viability at 5 µM (MCF-7 cells; [2]): 90% |
